Counter-ions that a name gives are not always drawn.
Columns and labels:
[1] = Redissolution in water of evaporated salt residue, pH and taste; type: physicochemical
Protocol: The meglumine salt of ibuprofen was formed by dissolving 10 grams of Ibuprofen, USP, in 330 milliliters of Alcohol, USP to which was added 10 grams of Meglumine, USP. The ibuprofen-meglumine molar ratio was 1:1.0566.

[2] = in alcohol; cited from earlier work

SMILES	ibuprofen concentration of clear solution as the meglumine salt ([1]; 740 milligrams of residue in 7.5 milliliters of water, 200 mg/5ml)	pH of salt solution ([1]; approximately 4% w/v ibuprofen in water)	meglumine alcohol solubility limit [2] [grams in 100 ml]
CC(C)Cc1ccc(C(C)C(=O)O)cc1 (stereo not drawn) [meglumine ibuprofen salt]	approximately 4 % w/v	8.35	
CNC[C@H](O)[C@@H](O)[C@H](O)[C@H](O)CO [meglumine, Meglumine]			1.2

Reference: patent publication US5028625A, “Acid addition salt of ibuprofen and meglumine” (priority 1989, dated 1991)
